Measured values published in US4198506A, “2-Carboxyalkyl-2,3-dihydro-6-mercapto-s-triazolo[4,3-b]-pyridazin-3-ones” (Bristol-Myers Company, priority 1979, dated 1980).
In brackets after ≈: the same amount, converted by molar mass. Several values for one entry are separate records, joined by “and”; a condition that tells them apart may be missing. Identical values can stand only once. Like-named read-outs stand apart in the source and are kept apart here.

Columns and labels:
S. aureus (sensitive) = assay: In vitro activity (geometric mean MIC, serial dilution); format: cell-based; details: Staphylococcus aureus, read-out: Geometric Mean MIC
[1] = system: S. aureus penicillinase+); assay: as above; format: cell-based; details: Staphylococcus aureus; 13 strains; Mueller-Hinton agar, inoculum 10^4 dilution; MIC cutoff 200 mcg./ml.; read-out: Geometric Mean MIC
[2] = system: S. aureus (Methicillin-R); assay: as above; format: cell-based; details: Staphylococcus aureus; 15 strains; Mueller-Hinton agar, inoculum 10^4 dilution; MIC cutoff 200 mcg./ml.
S. pyogenes = assay: as above; format: cell-based; details: Streptococcus pyogenes; 10 strains; Mueller-Hinton agar, inoculum 10^4 dilution; MIC cutoff 200 mcg./ml.
D. pneumoniae = assay: as above; format: cell-based; details: Streptococcus pneumoniae; 9 strains; Mueller-Hinton agar, inoculum 10^4 dilution; MIC cutoff 200 mcg./ml.
E. coli (sensitive) = assay: as above; format: cell-based; details: Escherichia coli, read-out: Geometric Mean MIC
[3] = system: E. coli (Penicillinase +); assay: as above; format: cell-based; details: Escherichia coli, read-out: Geometric Mean MIC
Enterobacter (sensitive) = assay: as above; format: cell-based; details: 3 strains, Mueller-Hinton agar, inoculum 10^4 dilution, MIC cutoff 200 mcg./ml., read-out: Geometric Mean MIC
[4] = system: Enterobacter (Cephalosporinase +); assay: as above; format: cell-based; details: 7 strains, Mueller-Hinton agar, inoculum 10^4 dilution, MIC cutoff 200 mcg./ml.
Proteus (indole-) = assay: as above; format: cell-based; details: read-out: Geometric Mean MIC
Proteus (indole +) = assay: as above; format: cell-based; details: read-out: Geometric Mean MIC
[5] = system: Proteus (indole +, cephalosporinase +); assay: as above; format: cell-based; details: read-out: Geometric Mean MIC
Providencia sp. = assay: as above; format: cell-based; details: 5 strains, Mueller-Hinton agar, inoculum 10^4 dilution, MIC cutoff 200 mcg./ml., read-out: Geometric Mean MIC
Klebsiella sp. = assay: as above; format: cell-based; details: 12 strains, Mueller-Hinton agar, inoculum 10^4 dilution, MIC cutoff 200 mcg./ml., read-out: Geometric Mean MIC
S. marcescens = assay: as above; format: cell-based; details: Serratia marcescens, read-out: Geometric Mean MIC
E. coli Juhl = assay: In vivo activity (Mice, sc); details: several determinations listed; for ED50: Escherichia coli, read-out: PD50
Excerpt: (§1) |In vivo Activity of BB-[…] and Related Compounds (Mice, sc) | (PD50 (mgm./kg.)

S. aureus Smith = assay: In vivo activity (Mice, sc); details: Staphylococcus aureus, several determinations listed, read-out: PD50
Excerpt: as §1

E. coli = assay: In vitro antibacterial activity (Steers' agar dilution MIC); format: cell-based; details: Escherichia coli
Excerpt: (§2) In vitro Antibacterial Activity of BB-S493 Compared with
(§3) BB-S479 and Cefamandole (Determined by Steers' Agar Dilu-
(§4) tion Method on Mueller-Hinton Agar Plate)
(§5) In vitro antibacterial activity of BB-S 525 compared with
(§6) BB-S 479 and cefamandole (determined by Steers' agar dilution
(§7) method on Mueller-Hinton agar plate)

Kl. pneumoniae = assay: as above; format: cell-based; details: Klebsiella pneumoniae, table 4 (BB-S 525)
Excerpt: as §2, §3, §4, §5, §6, §7

S. aureus = assay: as above; format: cell-based; details: Staphylococcus aureus, table 4 (BB-S 525)
Excerpt: as §2, §3, §4, §5, §6, §7

Sal. typhosa = assay: as above; format: cell-based; details: table 4 (BB-S 525); Sal. typhosa
Excerpt: as §2, §3, §4, §5, §6, §7

Shig. flexneri = assay: as above; format: cell-based; details: Shigella flexneri; table 4 (BB-S 525); Shig. flexneri; read-out: MIC
Excerpt: as §2, §3, §4, §5, §6, §7

Shig. sonnei = assay: as above; format: cell-based; details: Shigella sonnei, table 4 (BB-S 525); Shig. sonnei
Excerpt: as §2, §3, §4, §5, §6, §7

St. faecalis = assay: as above; format: cell-based; details: Enterococcus faecalis, table 4 (BB-S 525); St. faecalis; read-out: MIC
Pr. vulgaris = assay: as above; format: cell-based; details: Proteus vulgaris, table 4 (BB-S 525), Pr. vulgaris, read-out: MIC
Pr. mirabilis = assay: as above; format: cell-based; details: Proteus mirabilis, table 4 (BB-S 525), Pr. mirabilis, read-out: MIC
Pr. morganii = assay: as above; format: cell-based; details: Morganella morganii, table 4 (BB-S 525), Pr. morganii, read-out: MIC
Pr. rettgeri = assay: as above; format: cell-based; details: Providencia rettgeri, table 4 (BB-S 525); Pr. rettgeri
Ps. aeruginosa = assay: as above; format: cell-based; details: table 4 (BB-S 525), Ps. aeruginosa
Shig. dysenteriae = assay: as above; format: cell-based; details: Shigella dysenteriae, table 4 (BB-S 525); Shig. dysenteriae
Serr. marcescens = assay: as above; format: cell-based; details: Serratia marcescens, table 4 (BB-S 525); Serr. marcescens; read-out: MIC
Enterob. cloacae = assay: as above; format: cell-based; details: table 4 (BB-S 525); Enterob. cloacae; read-out: MIC
Sal. enteritidis = assay: as above; format: cell-based; details: Salmonella enterica, table 4 (BB-S 525), Sal. enteritidis
B. anthracis = assay: microbe, parasite or virus in culture; format: cell-based; details: Bacillus anthracis, table 4 (BB-S 525); B. anthracis

Question: Which MIC (S. aureus (sensitive)) does the source give for `CNCc1cc(O)ccc1CC(=O)N[C@@H]1C(=O)N2C(C(=O)O)=C(CSc3ccc4nn(CC(=O)O)c(=O)n4n3)CS[C@H]12` [BB-S478, 7-(2-N-Methylaminomethyl-4-hydroxyphenylacetamido)-3-(2-N-carboxymethyl-2,3-dihydro-s-triazolo[4,5-b]pyridazin-3-on-6-ylthiomethyl)-3-cephem-4-carboxylic Acid] here?
Answer: 0.4 µg/mL (≈ 0.65 µM)

Question: And the MIC [1]?
Answer: 1 µg/mL (≈ 1.62 µM)

Question: And the MIC [2]?
Answer: 50 µg/mL (≈ 81.2 µM)

Question: What about the MIC (S. pyogenes) of the same compound?
Answer: 0.04 µg/mL (≈ 0.065 µM)

Question: And the MIC (D. pneumoniae)?
Answer: 0.03 µg/mL (≈ 0.0487 µM)

Question: And the MIC (E. coli (sensitive); 13 strains, Mueller-Hinton agar, inoculum 10^4 dilution, MIC cutoff 200 mcg./ml.)?
Answer: 0.2 µg/mL (≈ 0.325 µM)

Question: What about the MIC [3] of the same compound?
Answer: 10 µg/mL (≈ 16.2 µM)

Question: What about the MIC (Enterobacter (sensitive)) of the same compound?
Answer: 0.8 µg/mL (≈ 1.3 µM)

Question: What about the MIC [4] of the same compound?
Answer: 2.6 µg/mL (≈ 4.22 µM)

Question: And the MIC (Proteus (indole-))?
Answer: 0.4 µg/mL (≈ 0.65 µM)

Question: And the MIC (Proteus (indole +))?
Answer: 0.3 µg/mL (≈ 0.487 µM)

Question: And the MIC [5]?
Answer: 7.3 µg/mL (≈ 11.9 µM)

Question: What about the MIC (Providencia sp.) of the same compound?
Answer: 4.8 µg/mL (≈ 7.8 µM)

Question: And the MIC (Klebsiella sp.)?
Answer: 0.6 µg/mL (≈ 0.975 µM)

Question: And the MIC (S. marcescens)?
Answer: 40 µg/mL (≈ 65 µM)

Question: And the ED50 (E. coli Juhl)?
Answer: 0.08 mg/kg

Question: What about the ED50 (S. aureus Smith) of the same compound?
Answer: 0.08 mg/kg

Question: With `CNCc1ccccc1CC(=O)N[C@@H]1C(=O)N2C(C(=O)O)=C(CSc3ccc4nn(CCC(=O)O)c(=O)n4n3)CS[C@H]12` [BB-S 525, 7-[o-(N-Methylaminomethyl)phenylacetamido]-3-[2-(2-carboxyethyl)-2,3-dihydro-s-triazolo[4,3-b]pyridazin-3-on-6-ylthiomethyl]-3-cephem-4-carboxylic acid] as the compound, how does the MIC (E. coli; ATCC8739, table 4 (BB-S 525), E. coli ATCC 8739) read?
Answer: 6.3 µg/mL (≈ 10.3 µM)

Question: And the MIC (E. coli; table 4 (BB-S 525), E. coli BX-1373, read-out: MIC)?
Answer: 0.4 µg/mL (≈ 0.652 µM)

Question: And the MIC (E. coli; table 4 (BB-S 525), E. coli Juhl, read-out: MIC)?
Answer: 0.4 µg/mL (≈ 0.652 µM)

Question: What about the MIC (E. coli; table 4 (BB-S 525), E. coli NIHJ, read-out: MIC) of the same compound?
Answer: 0.2 µg/mL (≈ 0.326 µM)

Question: And the MIC (E. coli; table 4 (BB-S 525), E. coli, strain not given, 1st line, read-out: MIC)?
Answer: 0.2 µg/mL (≈ 0.326 µM)

Question: And the MIC (E. coli; table 4 (BB-S 525), E. coli, strain not given, 2nd line, read-out: MIC)?
Answer: 0.2 µg/mL (≈ 0.326 µM)

Question: And the MIC (E. coli; table 4 (BB-S 525), E. coli, strain not given, 3rd line, read-out: MIC)?
Answer: 6.3 µg/mL (≈ 10.3 µM)

Question: And the MIC (Kl. pneumoniae; Kl. pneumoniae, 1st line)?
Answer: 1.6 µg/mL (≈ 2.61 µM)

Question: And the MIC (Kl. pneumoniae; Kl. pneumoniae, 2nd line)?
Answer: 0.2 µg/mL (≈ 0.326 µM)

Question: And the MIC (Kl. pneumoniae; Kl. pneumoniae, 3rd line)?
Answer: 0.2 µg/mL (≈ 0.326 µM)

Question: And the MIC (Kl. pneumoniae; Kl. pnuemoniae, 4th line)?
Answer: 0.2 µg/mL (≈ 0.326 µM)

Question: What about the MIC (S. aureus; S. aureus (strain not given)) of the same compound?
Answer: 0.2 µg/mL (≈ 0.326 µM)

Question: What about the MIC (S. aureus; S. aureus BX-1633) of the same compound?
Answer: 0.8 µg/mL (≈ 1.3 µM)

Question: And the MIC (S. aureus; S. aureus Smith)?
Answer: 0.4 µg/mL (≈ 0.652 µM)

Question: What about the MIC (Sal. typhosa) of the same compound?
Answer: 0.2 µg/mL (≈ 0.326 µM)

Question: And the MIC (Shig. flexneri)?
Answer: 12.5 µg/mL (≈ 20.4 µM)

Question: And the MIC (Shig. sonnei)?
Answer: 0.1 µg/mL (≈ 0.163 µM)

Question: What about the MIC (St. faecalis) of the same compound?
Answer: > 100 µg/mL

Question: And the MIC (Pr. vulgaris; 1st line)?
Answer: 0.2 µg/mL (≈ 0.326 µM)

Question: And the MIC (Pr. vulgaris; 2nd line)?
Answer: 3.1 µg/mL (≈ 5.05 µM)

Question: What about the MIC (Pr. mirabilis; 1st line) of the same compound?
Answer: 0.4 µg/mL (≈ 0.652 µM)

Question: And the MIC (Pr. mirabilis; 2nd line)?
Answer: 0.2 µg/mL (≈ 0.326 µM)

Question: What about the MIC (Pr. morganii; 1st line) of the same compound?
Answer: > 100 µg/mL

Question: What about the MIC (Pr. morganii; 2nd line) of the same compound?
Answer: 0.2 µg/mL (≈ 0.326 µM)

Question: And the MIC (Pr. rettgeri)?
Answer: 0.8 µg/mL (≈ 1.3 µM)

Question: What about the MIC (Ps. aeruginosa; Pseudomonas aeruginosa, 1st line, read-out: MIC) of the same compound?
Answer: > 100 µg/mL

Question: And the MIC (Ps. aeruginosa; 2nd line)?
Answer: > 100 µg/mL

Question: What about the MIC (Shig. dysenteriae) of the same compound?
Answer: 0.1 µg/mL (≈ 0.163 µM)

Question: And the MIC (Serr. marcescens)?
Answer: 25 µg/mL (≈ 40.7 µM)

Question: And the MIC (Enterob. cloacae)?
Answer: 3.1 µg/mL (≈ 5.05 µM)

Question: And the MIC (Sal. enteritidis)?
Answer: 0.2 µg/mL (≈ 0.326 µM)

Question: What about the MIC (B. anthracis) of the same compound?
Answer: 0.2 µg/mL (≈ 0.326 µM)

Question: What does the source list for `NCc1ccccc1CC(=O)N[C@@H]1C(=O)N2C(C(=O)O)=C(CSc3nnnn3CC(=O)O)CS[C@H]12` [BL-S786, reference compound]?
Answer: MIC (S. aureus (sensitive); 4 strains, Mueller-Hinton agar, inoculum 10^4 dilution, MIC cutoff 200 mcg./ml.): 1.3 µg/mL (≈ 2.5 µM); MIC [1]: 3 µg/mL (≈ 5.77 µM); MIC [2]: 48 µg/mL (≈ 92.4 µM); MIC (S. pyogenes): 0.2 µg/mL (≈ 0.385 µM); MIC (D. pneumoniae): 0.08 µg/mL (≈ 0.154 µM); MIC (E. coli (sensitive)): 0.4 µg/mL (≈ 0.77 µM); MIC ([3]; 7 strains, Mueller-Hinton agar, inoculum 10^4 dilution, MIC cutoff 200 mcg./ml.): 9.3 µg/mL (≈ 17.9 µM); MIC (Enterobacter (sensitive)): 1.3 µg/mL (≈ 2.5 µM); MIC [4]: 7.7 µg/mL (≈ 14.8 µM); MIC (Proteus (indole-)): 0.9 µg/mL (≈ 1.73 µM); MIC (Proteus (indole +)): 0.7 µg/mL (≈ 1.35 µM); MIC ([5]; 5 strains, Mueller-Hinton agar, inoculum 10^4 dilution, MIC cutoff 200 mcg./ml.): 29 µg/mL (≈ 55.8 µM); MIC (Providencia sp.): 1.4 µg/mL (≈ 2.69 µM); MIC (Klebsiella sp.): 0.8 µg/mL (≈ 1.54 µM); MIC (S. marcescens; 16 strains, Mueller-Hinton agar, inoculum 10^4 dilution, MIC cutoff 200 mcg./ml.): 180 µg/mL (≈ 346 µM); ED50 (E. coli Juhl): 0.43 mg/kg; PD50 (E. coli Juhl): 0.55 mgm./kg. and 0.46 mgm./kg. and 0.39 mgm./kg.
